Where a name gives a salt, the structure may show the parent alone. Read-outs that look alike come from different tables or passages of the source. One block for each compound: values may come before it.
What was measured:
[1] = tested on: Trypanosoma brucei rhodesiense (T. b. r.); experiment: In vitro antiprotozoal activity against T. b. r.; format: cell-based
Description: (§1) In vitro antiprotozoal activities were measured following established protocols. See Ismail, M. A., et al., J. Med. Chem., 46, 4761-4769 (2003); Stephens, C. E., et al., Bioorg. Med. Chem. Lett., 13, 2065-2069 (2003) (in vitro assay against Leishmania donovani).
(§2) Testing methods are as described above in Example 17.

[2] = tested on: Plasmodium falciparum (P. f.); experiment: In vitro antiprotozoal activity against P. f.; format: cell-based
Description: as §1, §2

[3] = tested on: Leishmania donovani (L. d.); experiment: In vitro antiprotozoal activity against L. d.; format: cell-based; details: read-out: L. d. IC50
Description: as §1, §2

[4] = tested on: L-6 rat mycoblast cells; experiment: cells
Description: as §1, §2

[5] = tested on: STIB 900 strain of Trypanosoma brucei rhodesiense; experiment: T. b. r. STIB 900 mouse model; format: in vivo; details: for responders at 20 mg/kg: Trypanosoma brucei, 1440 h, mice surviving parasite free for 60 days, groups of four, read-out: Cures (converted)
Description: The activities of compounds 20, 18, 21, 48, 23c, 24c, 5, 4, and 10 against the STIB 900 strain of Trypanosoma brucei rhodesiense (T. b. r.) in a mouse model are shown in Table 3. […] Groups of four mice were infected intraperitoneally with 2×10^5 bloodstream forms of T. b. r. STIB 900 which originates from a patient in Tanzania. On days 3, 4, 5, and 6 post-infection the experimental groups were treated with the indicated compound, either by the intraperitoneal route, or for prodrugs, by the oral route. Usually the highest tolerated dose was used. The highest tolerated dose was determined in a pretoxicological experiment.
Parasitemia of the mice was checked daily up to day 14 post-infection and thereafter 2 times per week up to day 60. One group of mice was not treated and acted as control. Untreated control animals expire between day 7 and 8 post-infection. For relapsing mice, the day of death was recorded and the survival time determined. For the data shown in Table 3, cures reflect the number of mice that survive and are parasite free for 60 days. Survival reflects the average days of survival.
as §2

[6] = tested on: DNA minor groove; experiment: ΔTm of linear triaryl dications (DNA minor groove binding)
[7] = Trypanosoma brucei, RHODESIENSE, Table 1, k/K = thousand, read-out: T. b. r. IC50
[8] = Plasmodium falciparum, Table 1, k/K = thousand
[9] = Rattus norvegicus, L6, read-out: CT IC50
[10] = 20 mg/kg ip, days 3-6 post-infection, average days of survival
[11] = 20 mg/kg ip, days 3-6 post-infection
[12] = Table 1, k/K = thousand, read-out: T. b. r. IC50
[13] = Table 2, K = thousand, read-out: T. b. r. IC50
[14] = read-out: CT IC50, Table 1, L-6 cells
[15] = Rattus norvegicus, L6, read-out: CT IC50, Table 4, L-6 cells

SMILES: CC(=O)O.N=C(N)c1ccc(-c2ccc(-c3ccc(C(=N)N)o3)cc2)o1
- melting point: 228 to 230 °C

- melting point: 217 to 218 °C
SMILES: CONC(=N)c1ccc(-c2cnc(-c3ccc(C(=N)NOC)cc3)nc2)cc1 (as salt: hydrochloride) [Compound 29, 2,5-Bis-[4′-(N-methoxyamidino)phenyl]-pyrimidine]

- melting point: 194 to 195 °C
SMILES: N=C(NO)c1ccc(-c2ccc(-c3ccc(C(=N)NO)o3)cn2)cc1 [Compound 9, N-Hydroxy-5-{6-[4-(N-hydroxyamidino)-phenyl]-pyridin-3-yl}-furan-2-carboxamidine]

SMILES: CC(=O)O.N=C(N)c1ccc(-c2ccc(-c3ccc(C(=N)N)o3)cn2)cc1 [Compound 10, 5-[6-(4-Amidinophenyl)-pyridin-3-yl]-furan-2-carboxamidine acetate salt]
- IC50 [1, 7]: 2 nM
- IC50 [2, 8]: 5.2 nM
- IC50 ([3]; Leishmania donovani, Table 1): 20500 nM
- IC50 [4, 9]: 30900 nM
- Survival [5, 10]: >53.5 days
- responders at 20 mg/kg [5, 11]: 75%

- melting point: > 300 °C
SMILES: N=C(NO)c1ccc(-c2ccc(-c3ccc(C(=N)NO)o3)cc2)o1 [Compound 13, N-Hydroxy-5-{4-[5-(N-hydroxyamidino)-furan-2-yl]-phenyl}-furan-2-carboxamidine]

SMILES: CC(=O)O.N=C(N)c1ccc(-c2ccc(-c3ccc(C(=N)N)cc3)cc2)cc1 [Compound 20, [1,1′;4′,1″]Terphenyl-4,4″-bis-carboxamidine acetate salt]
- ΔTm ([6]; Table 1): 19.1 °C
- IC50 [1, 7]: 5 nM
- IC50 [2, 8]: 1 nM
- IC50 [4, 9]: 22100 nM
- Survival [5, 10]: 52.5 days
- responders at 20 mg/kg [5, 11]: 0%

SMILES: Cl.N=C(N)c1ccc(-c2ccc(-c3ccc(C(=N)N)cc3)c(F)c2)cc1 [Compound 23a, 2′-Fluoro-[1,1′;4′,1″]terphenyl-4,4″-bis-amidine hydrochloride salt]
- ΔTm ([6]; Table 1): 15.1 °C
- IC50 [1, 7]: 2 nM
- IC50 [2, 8]: 1 nM
- IC50 ([3]; Leishmania donovani, Table 1): 340 nM
- IC50 [4, 9]: 6400 nM

SMILES: Cl.N=C(N)c1ccc(-c2ccc(-c3ccc(C(=N)N)cc3)c(C(F)(F)F)c2)cc1 [Compound 23b, 2′-Trifluoromethyl-[1,1′;4′,1″]terphenyl-4,4″-bis-amidine hydrochloride salt]
- ΔTm ([6]; Table 1): 10.1 °C
- IC50 [1, 7]: 48 nM
- IC50 [2, 8]: 15 nM
- IC50 ([3]; Leishmania donovani, Table 1): 3000 nM
- IC50 [4, 9]: 9000 nM
- melting point: > 300 °C

- melting point: 290 to 292 °C
SMILES: N=C(NO)c1ccc(-c2cnc(-c3ccc(C(=N)NO)cc3)nc2)cc1 [Compound 28, 2,5-Bis-[4′-(N-hydroxyamidino)phenyl]-pyrimidine]

- IC50 [1, 12]: 47 nM
- IC50 ([2]; Table 1, k/K = thousand): 10 nM
- IC50 ([3]; Table 1): > 100000 nM
SMILES: N=C(N)c1ccc(-c2ccc(-c3ccc(C(=N)N)cn3)cc2)nc1 [Compound 31, 1,4-Bis-(5′-amidinopyridin-2′-yl)-phenylene]

- IC50 [1, 13]: 175 nM
- IC50 ([2]; Table 2, K = thousand): 21 nM
- IC50 ([3]; Table 2): 12900 nM
- IC50 [4]: 7300 nM
SMILES: N=C(N)c1ccc(-c2ccc(-c3ccc(C(=N)N)cc3)c3ccccc23)cc1 [Compound 38a, Phenyl[1,1]napthyl[4′,1″]phenyl-4,4″-bis-amidine]

- ΔTm ([6]; Table 2): 18.2 °C
- IC50 [1, 13]: 53 nM
- IC50 ([2]; Table 2, K = thousand): 19 nM
- IC50 ([3]; Table 2): 280 nM
- IC50 [4]: 8000 nM
SMILES: N=C(N)c1ccc(-c2ccc3cc(-c4ccc(C(=N)N)cc4)ccc3c2)cc1 [Compound 38b, Phenyl[1,2′]naphthyl[6′,1″]phenyl-4,4″-bis-amidine]

SMILES: N=C(N)Nc1ccc(-c2ccc(-c3ccc(NC(=N)N)cc3)cc2)cc1 [Compound 48, 4,4″-Bis-guanidino-[1,1′;4′,1″]terphenyl]
- ΔTm ([6]; Table 1): 12.2 °C
- IC50 [1, 7]: 18 nM
- IC50 [2, 8]: 27 nM
- IC50 ([3]; Leishmania donovani, Table 1): 1200 nM
- IC50 ([4]; Rattus norvegicus, L6, read-out: CT IC50, Table 1, L-6 cells): 25400 nM
- Survival [5, 10]: >60 days
- responders at 20 mg/kg [5, 11]: 0%

- IC50 [1, 12]: 530 nM
- IC50 ([2]; Table 1, k/K = thousand): 14 nM
- IC50 ([3]; Table 1): 7200 nM
SMILES: CC(C)N=C(N)Nc1ccc(-c2ccc(-c3ccc(NC(N)=NC(C)C)cc3)cc2)cc1 [Compound 51b, 4,4″-Bis(N′-isopropyl)-guanidino-[1,1′;4′,1″]terphenyl]
- IC50 [4, 14]: 21900 nM

SMILES: N=C(N)c1ccc(-c2ccc(-c3ccc(C(=N)N)nc3)cc2)cn1 [Compound 66, 1,4-Bis-(2′-amidinopyridin-5′-yl)-phenylene hydrochloride salt]
- ΔTm ([6]; Table 1): 16.1 °C
- IC50 ([3]; Leishmania donovani, Table 1): 720 nM
- IC50 ([3]; Leishmania donovani, Table 4): 63 nM
- IC50 [4, 9]: 31300 nM
- IC50 [4, 15]: 1200 nM
- Cures ([5]; 5 mg/kg ip, Table 5): 0/4
- Survival ([5]; 5 mg/kg ip, Table 5): > 51.5 days

SMILES: Cl.NC(=NO)c1ccc(-c2ccc(-c3ccc(C(N)=NO)nc3)cc2)cn1 [Compound 67, 1,4-Bis-[2′-(N-hydroxyamidinopyridin-5′-yl)]-phenylene hydrochloride salt]
- IC50 [1, 12]: 12000 nM
- IC50 ([2]; Table 1, k/K = thousand): 2400 nM
- IC50 [4, 14]: 8100 nM
- Cures ([5]; 25 mg/kg po, Table 5): 0/4
- Survival ([5]; 25 mg/kg po, Table 5): 16.25 days

SMILES: N=C(N)c1cnc(-c2ccc(-c3cnc(C(=N)N)cn3)cc2)cn1 [Compound 71, 1,4-Bis-(2′-amidinopyrazin-5′-yl)-phenylene hydrochloride salt]
- IC50 ([2]; Plasmodium falciparum, Table 4): 5170 nM
- IC50 ([3]; Leishmania donovani, Table 4): 10000 nM
- IC50 [4, 15]: 46500 nM

- IC50 ([3]; Leishmania donovani, Table 4): 1720 nM
SMILES: N=C(N)c1ncc(-c2ccc(-c3cnc(C(=N)N)nc3)cc2)cn1 [Compound 73, 1,4-Bis-(2′-amidinopyrimidin-5′yl)-phenylene hydrochloride salt]

SMILES: N=C(N)c1ccc(-c2cnc(-c3ccc(C(=N)N)cc3)cn2)cc1 [Compound 75, 2,5-Bis-(4′-amidinophenyl)-pyrazine hydrochloride salt]
- IC50 ([1]; Trypanosoma brucei, RHODESIENSE, read-out: T. b. IC50): 18 nM
- IC50 ([3]; Leishmania donovani): 562 nM
- IC50 [4, 15]: 42500 nM

- IC50 ([3]; Leishmania donovani, Table 4): 1830 nM
SMILES: N=C(N)c1ccc(-c2cnc(-c3ccc(C(=N)N)nc3)nc2)cn1 [Compound 77, 2,5-Bis-(2′-amidinopyridin-5′-yl)-pyrimidine hydrochloride salt]

SMILES: N=C(N)c1ccc(-c2ccc(-c3ccc(C(=N)N)nc3)cc2)cc1 [Compound 80, Phenyl[1,1′]phenyl[4′,5″]pyridinyl-4,2″-bis-amidine hydrochloride salt]
- IC50 ([3]; Leishmania donovani, Table 4): 84 nM
- IC50 [4, 15]: 2800 nM

SMILES: N=C(N)c1ccc(-c2ccc(-c3ccc(C(=N)N)cn3)cc2)cc1 [Compound 83, Phenyl[1,1′]phenyl[4′,2″]pyridinyl-4,5″-bis-amidine hydrochloride salt]
- IC50 ([3]; Leishmania donovani, Table 4): 1370 nM
- IC50 [4, 15]: 26700 nM

- IC50 ([3]; Leishmania donovani, Table 4): 190 nM
SMILES: N=C(N)c1ccc(-c2ccc(-c3cnc(C(=N)N)nc3)cc2)cc1 [Compound 86, Phenyl[1,1′]phenyl[4′,5″]pyrimidinyl-4,2″-bis-amidine hydrochloride salt]

SMILES: N=C(N)c1ccc(-c2ccc(-c3ccc(C(=N)N)nc3)cn2)cc1 [Compound 89, Phenyl[1,2′]pyridinyl[5′,5″]pyridinyl-4,2″-bis-amidine hydrochloride salt]
- IC50 ([1]; Trypanosoma brucei, RHODESIENSE, Table 4, read-out: T. b. IC50): 6 nM
- IC50 ([2]; Plasmodium falciparum, Table 4): 1 nM
- IC50 ([3]; Leishmania donovani, Table 4): 510 nM
- IC50 [4, 15]: 19900 nM
- Cures ([5]; 5 mg/kg ip, Table 5): 3/4
- Survival ([5]; 5 mg/kg ip, Table 5): > 60 days

SMILES: CON=C(N)c1ccc(-c2ccc(-c3ccc(C(N)=NOC)nc3)cn2)cc1.Cl [Compound 91, Phenyl[1,2′]pyridinyl[5′,5″]pyridinyl-4,2″-bis-N-methoxyamidine hydrochloride salt]
- IC50 ([1]; Table 4, read-out: T. b. IC50): 1980 nM
- IC50 ([2]; Table 4): 2150 nM
- IC50 ([4]; read-out: CT IC50, Table 4, L-6 cells): 12800 nM
- Cures ([5]; 25 mg/kg ip, Table 5): 0/4
- Survival ([5]; 25 mg/kg ip, Table 5): 22.25 days

SMILES: N=C(N)c1ccc(-c2ccc(-c3ccc(C(=N)N)cn3)cn2)cc1 [Compound 94, Phenyl[1,2′]pyridinyl[5′,2″]pyridinyl-4,5″-bis-amidine hydrochloride salt]
- IC50 ([2]; Plasmodium falciparum, Table 4): 3 nM
- IC50 ([3]; Leishmania donovani, Table 4): 6820 nM
- IC50 [4, 15]: 28300 nM
- Survival ([5]; 5 mg/kg ip, Table 5): > 60 days

SMILES: N=C(N)c1ccc(-c2ccc(-c3cnc(C(=N)N)cn3)cn2)cc1 [Compound 97, Phenyl[1,2′]pyridinyl[5′,5″]pyrazinyl-4,2″-bis-amidine hydrochloride salt]
- IC50 ([3]; Leishmania donovani, Table 4): 15600 nM
- IC50 [4, 15]: 93400 nM

- IC50 ([3]; Leishmania donovani, Table 4): 2640 nM
SMILES: N=C(N)c1ccc(-c2ccc(-c3cnc(C(=N)N)nc3)cn2)cc1 [Compound 100, Phenyl[1,2′]pyridinyl[5′,5″]pyrimidinyl-4,2″-bis-amidine hydrochloride salt]

Source: patent US8188121B2, “Substituted pyridines as antiparasitic AZA teraryl compounds” (The University of North Carolina at Chapel Hill, priority 2005, dated 2012)
